Experimental data as given in US9573930B2 (Quanticel Pharmaceuticals, Inc., priority 2014, dated 2017).

biological target: full-length human LSD1 (Homo sapiens (Human), UniProt O60341); assay: In vitro enzyme inhibition assay LSD-1 (TR-FRET); assay type: biochemical; conditions: H3K4me1-biotin peptide
Experimental: This assay determines the ability of a test compound to inhibit LSD1 demethylase activity.
The enzymatic assay of LSD1 activity is based on Time Resolved-Fluorescence Resonance Energy Transfer (TR-FRET) detection.
The ability of the compounds disclosed herein to inhibit LSD1 activity was quantified and the respective IC50 value was determined.

IC50 [nM]	SMILES
< 100	COc1ccc(-c2c(-c3ccc(C#N)c(F)c3)nc(N(C)C[C@@H]3CCNC3)n(C)c2=O)cc1 (stereo in doubt) [Example 56, 2-fluoro-4-[5-(4-methoxy-phenyl)-1-methyl-2-(methyl-pyrrolidin-3-ylmethyl-amino)-6-oxo-1,6-dihydro-pyrimidin-4-yl]-benzonitrile]
< 100	COc1ccc(-c2c(-c3ccc(C#N)cc3)nc(N3CCC(N)CC3)n(C)c2=O)cn1 [Example 3, 4-[2-(4-amino-piperidin-1-yl)-5-(6-methoxy-pyridin-3-yl)-1-methyl-6-oxo-1,6-dihydro-pyrimidin-4-yl]-benzonitrile]
< 100	Cc1ccc(-c2c(-c3ccc(C#N)cc3)nc(N3CCC(N)CC3)n(C)c2=O)cn1 [Example 4, 4-[2-(4-amino-piperidin-1-yl)-1-methyl-5-(6-methyl-pyridin-3-yl)-6-oxo-1,6-dihydro-pyrimidin-4-yl]-benzonitrile]
< 100	COc1ccc(-c2c(-c3ccc(C#N)c(F)c3)nc(N3CCC(N)CC3)n(C)c2=O)cc1 [Example 6, 4-[2-(4-amino-piperidin-1-yl)-5-(4-methoxy-phenyl)-1-methyl-6-oxo-1,6-dihydro-pyrimidin-4-yl]-2-fluoro-benzonitrile]
< 100	COc1ccc(-c2c(-c3ccc(C#N)c(F)c3)nc(N3CCC(N)CC3)n(C)c2=O)cn1 [Example 8, 4-[2-(4-amino-piperidin-1-yl)-5-(6-methoxy-pyridin-3-yl)-1-methyl-6-oxo-1,6-dihydro-pyrimidin-4-yl]-2-fluoro-benzonitrile]
< 100	Cc1ccc(-c2c(-c3ccc(C#N)c(F)c3)nc(N3CCC(N)CC3)n(C)c2=O)cn1 [Example 9]
< 100	CCc1ccc(-c2c(-c3ccc(C#N)cc3)nc(N3CCC(N)CC3)n(C)c2=O)cn1 [Example 10, 4-[2-(4-amino-piperidin-1-yl)-5-(6-ethyl-pyridin-3-yl)-1-methyl-6-oxo-1,6-dihydro-pyrimidin-4-yl]-benzonitrile]
< 100	CNC1CCN(c2nc(-c3ccc(C#N)c(F)c3)c(-c3ccc(OC)cc3)c(=O)n2C)CC1 [Example 11, 2-fluoro-4-[5-(4-methoxy-phenyl)-1-methyl-2-(4-methylamino-piperidin-1-yl)-6-oxo-1,6-dihydro-pyrimidin-4-yl]-benzonitrile]
< 100	CNC1CCN(c2nc(-c3ccc(C#N)c(F)c3)c(-c3ccc(OC)c(F)c3)c(=O)n2C)CC1 [Example 12, 2-fluoro-4-[5-(3-fluoro-4-methoxy-phenyl)-1-methyl-2-(4-methylamino-piperidin-1-yl)-6-oxo-1,6-dihydro-pyrimidin-4-yl]-benzonitrile]
< 100	Cn1c(N2CCC(N)CC2)nc(-c2ccc(C#N)c(F)c2)c(C#CC2CCCC2)c1=O [Example 14, 4-[2-(4-amino-piperidin-1-yl)-5-cyclopentylethynyl-1-methyl-6-oxo-1,6-dihydro-pyrimidin-4-yl]-2-fluoro-benzonitrile]
< 100	COc1ccc(-c2c(-c3ccc(C#N)c(F)c3)nc(N3CCC(N)CC3)n(CC(=O)O)c2=O)cc1 [Example 15, [2-(4-amino-piperidin-1-yl)-4-(4-cyano-3-fluoro-phenyl)-5-(4-methoxy-phenyl)-6-oxo-6H-pyrimidin-1-yl]-acetic acid]
< 100	COc1ccc(-c2c(-c3ccc(C#N)c(F)c3)nc(N3CCC(N)CC3)n(CC(N)=O)c2=O)cc1 [Example 16, 2-[2-(4-amino-piperidin-1-yl)-4-(4-cyano-3-fluoro-phenyl)-5-(4-methoxy-phenyl)-6-oxo-6H-pyrimidin-1-yl]-acetamide]
< 100	Cn1c(N2CCC(N)CC2)nc(-c2ccc(C#N)c(F)c2)c(-c2ccc3occc3c2)c1=O [Example 18, 4-[2-(4-amino-piperidin-1-yl)-5-benzofuran-5-yl-1-methyl-6-oxo-1,6-dihydro-pyrimidin-4-yl]-2-fluoro-benzonitrile]
< 100	Cn1c(N2CCC(N)CC2)nc(-c2ccc(C#N)c(F)c2)c(C#N)c1=O [Example 19, 2-(4-amino-piperidin-1-yl)-4-(4-cyano-3-fluoro-phenyl)-1-methyl-6-oxo-1,6-dihydro-pyrimidine-5-carbonitrile]
< 100	CNC1CCN(c2nc(-c3ccc(C#N)c(F)c3)c(-c3ccc(C)nc3)c(=O)n2C)CC1 [Example 21, 2-fluoro-4-[1-methyl-2-(4-methylamino-piperidin-1-yl)-5-(6-methyl-pyridin-3-yl)-6-oxo-1,6-dihydro-pyrimidin-4-yl]-benzonitrile]
< 100	COc1ccc(-c2c(-c3ccc(C#N)c(F)c3)nc(N3CCC4(CCNC4)CC3)n(C)c2=O)cc1F [Example 22, 4-[2-(2,8-diaza-spiro[4.5]dec-8-yl)-5-(3-fluoro-4-methoxy-phenyl)-1-methyl-6-oxo-1,6-dihydro-pyrimidin-4-yl]-2-fluoro-benzonitrile]
< 100	COc1ccc(-c2c(-c3ccc(C#N)c(F)c3)nc(N3CCC[C@@H](N)C3)n(C)c2=O)cc1F [Example 25, 4-[2-((3R)-3-aminopiperidyl)-5-(3-fluoro-4-methoxyphenyl)-1-methyl-6-oxohydropyrimidin-4-yl]-2-fluorobenzenecarbonitrile]
< 100	COc1ccc(-c2c(-c3ccc(C#N)c(F)c3)nc(N3CC[C@@H](N)C3)n(C)c2=O)cc1F [Example 27, 4-[2-((3R)-3-aminopyrrolidinyl)-5-(3-fluoro-4-methoxyphenyl)-1-methyl-6-oxohydropyrimidin-4-yl]-2-fluorobenzenecarbonitrile]
< 100	COc1ccc(-c2c(-c3ccc(C#N)c(F)c3)nc(N3CCC[C@H](N)C3)n(C)c2=O)cc1F [Example 28, 4-[2-((3S)-3-amino-piperidin-1-yl)-5-(3-fluoro-4-methoxy-phenyl)-1-methyl-6-oxo-1,6-dihydro-pyrimidin-4-yl]-2-fluoro-benzonitrile]
< 100	COc1ccc(-c2c(-c3ccc(C#N)c(F)c3)nc(N3CC[C@H](N)C3)n(C)c2=O)cc1F [Example 29, 4-[2-((3S)-3-amino-pyrrolidin-1-yl)-5-(3-fluoro-4-methoxy-phenyl)-1-methyl-6-oxo-1,6-dihydro-pyrimidin-4-yl]-2-fluoro-benzonitrile]
< 100	COc1ccc(-c2c(-c3ccc(C#N)c(F)c3)nc(N3CCC[C@@H](N)C3)n(C)c2=O)cc1 [Example 30, 4-[2-((3R)-3-aminopiperidyl)-5-(4-methoxyphenyl)-1-methyl-6-oxohydropyrimidin-4-yl]-2-fluorobenzenecarbonitrile]
< 100	COc1ccc(-c2c(-c3ccc(C#N)c(F)c3)nc(N3CCC[C@H](N)C3)n(C)c2=O)cc1 [Example 31, 4-[2-((3S)-3-amino-piperidin-1-yl)-5-(4-methoxy-phenyl)-1-methyl-6-oxo-1,6-dihydro-pyrimidin-4-yl]-2-fluoro-benzonitrile]
< 100	COc1ccc(-c2c(-c3ccc(C#N)c(F)c3)nc(N3CCC(C)(N)CC3)n(C)c2=O)cc1F [Example 32, 4-[2-(4-amino-4-methyl-piperidin-1-yl)-5-(3-fluoro-4-methoxy-phenyl)-1-methyl-6-oxo-1,6-dihydro-pyrimidin-4-yl]-2-fluoro-benzonitrile]
< 100	Cn1c(N2CCC(N)CC2)nc(-c2ccc(C#N)c(F)c2)c(-c2cnn(CC(F)(F)F)c2)c1=O [Example 34, 4-{2-(4-amino-piperidin-1-yl)-1-methyl-6-oxo-5-[1-(2,2,2-trifluoro-ethyl)-1H-pyrazol-4-yl]-1,6-dihydro-pyrimidin-4-yl}-2-fluoro-benzonitrile]
< 100	Cn1c(N2CCC(N)CC2)nc(-c2ccc(C#N)cc2)c(-c2cnn(CC(F)(F)F)c2)c1=O [Example 36, 4-{2-(4-amino-piperidin-1-yl)-1-methyl-6-oxo-5-[1-(2,2,2-trifluoro-ethyl)-1H-pyrazol-4-yl]-1,6-dihydro-pyrimidin-4-yl}-benzonitrile]
< 100	Cn1cc2cc(-c3c(-c4ccc(C#N)c(F)c4)nc(N4CCC(N)CC4)n(C)c3=O)ccc2n1 [Example 37, 4-[2-(4-aminopiperidyl)-1-methyl-5-(2-methyl(2H-indazol-5-yl))-6-oxohydropyrimidin-4-yl]-2-fluorobenzenecarbonitrile]
< 100	COc1c(F)cc(-c2c(-c3ccc(C#N)cc3)nc(N3CCC(N)CC3)n(C)c2=O)cc1F [Example 38, 4-[2-(4-aminopiperidyl)-5-(3,5-difluoro-4-methoxyphenyl)-1-methyl-6-oxohydropyrimidin-4-yl]benzenecarbonitrile]
< 100	CNC(=O)c1ccc(-c2c(-c3ccc(C#N)cc3)nc(N3CCC(N)CC3)n(C)c2=O)cc1F [Example 40, {4-[2-(4-aminopiperidyl)-6-(4-cyanophenyl)-3-methyl-4-oxo(3-hydropyrimidin-5-yl)]-2-fluorophenyl}-N-methylcarboxamide]

SMILES	IC50 [nM]
CCn1c(N2CCC(N)CC2)nc(-c2ccc(C#N)c(F)c2)cc1=O [Example 13, 4-[2-(4-amino-piperidin-1-yl)-1-ethyl-6-oxo-1,6-dihydro-pyrimidin-4-yl]-2-fluoro-benzonitrile]	100 to 1000
N#Cc1ccc(-c2cc(=O)n(CCCO)c(N3CCC(N)CC3)n2)cc1F [Example 17, 4-[2-(4-amino-piperidin-1-yl)-1-(3-hydroxy-propyl)-6-oxo-1,6-dihydro-pyrimidin-4-yl]-2-fluoro-benzonitrile]	100 to 1000
COc1ncc(-c2c(-c3ccc(C#N)c(F)c3)nc(N3CCC(N)CC3)n(C)c2=O)cc1F [Example 26, 4-[2-(4-aminopiperidyl)-5-(5-fluoro-6-methoxy(3-5,6-dihydropyridyl))-1-methyl-6-oxohydropyrimidin-4-yl]-2-fluorobenzenecarbonitrile]	< 100
Cn1c(N2CCC(N)CC2)nc(-c2ccc(C#N)c(F)c2)c(-c2ccc(C(=O)O)cc2)c1=O [Example 39, 4-[2-(4-aminopiperidyl)-6-(4-cyano-3-fluorophenyl)-3-methyl-4-oxo-3-hydropyrimidin-5-yl]benzoic acid]	100 to 1000
